# Measured values from publication PMC10721898, “C5 methylation confers accessibility, stability and selectivity to picrotoxinin” (Nature Communications, 2023).
# “Also recorded” adds a separate entry of the source.
# Experiments:
# [1] = Methanolysis with NaOMe in d4-methanol (1H NMR monitoring); assay type: physicochemical; conditions: for stability to catalytic NaOMe: 5 mol % NaOMe, 22 °C; for stability to catalytic NaOMe / competition experiment, 1:1 mixture of PXN and 5MePXN: d4-methanol; for concentration in competitive methanolysis: 5 mol% NaOMe in CD3OD; for competition experiment, 1:1 mixture of PXN and 5MePXN: 5 mol% NaOMe
# Text: Even addition of 2 equivalents NaOMe had no effect on 5MePXN (Fig. 3b and SI), far exceeding the tolerance of PXN. Thus, C5 methylation stabilized PXN against buffered water hydrolysis, acidic hydrolysis and alkaline methanolysis (Fig. 3a–d, see also ref. [21]). This profound stabilization highlighted the unique effects to reactivity imparted by C5 methylation. Furthermore, it opened a window into understanding differences in blood degradation of 5MePXN.
# Supplementary Figure 4. Competitive methanolysis of PXN and 5MePXN under 5 mol% NaOMe in CD3OD.
# (a) 0 min, (b) 10 min, (c) 30 min, (d) 60 min, (e) 100 min, (f) 140 min, (g) 280 min.
# Supplementary Table 5. Concentration of each component in competitive methanolysis. […]
# Supplementary Figure 5. Concentration of PXN, d5-33, d9-34 and 5MePXN vs. time (min) 3.4 Methanolysis of 5MePXN under different equivalent of NaOMe in CD3OD To a solution of 5MePXN (2.5 mg, 0.0082 mmol ) in CD 3OD (0.4 mL) in 5 mm NMR tube was added a solution of NaOMe in CD3OD (0.1, 0.2, 0.5, 0.8, 1.0, 1.5 and 2.0 equiv) at room temperature. The NMR tube was shaken bottom up 5 times to make solution homogenous, then measured by 1H NMR.
# [2] = Degradation in dilute sulfuric acid; assay type: physicochemical; conditions: for stability to acid: 1 mol % H2SO4 (Fig. 1b); for degradation in acid: warming, 1% H2SO4, 0.18 M, aqueous
# rat GABAA ion channel = test: Non-selective rat GABAA ion channel [3H]TBOB binding (antagonist radioligand) assay, rat cerebral cortex; conditions: for IC50: [3H]TBOB displacement, n = 1
# Experimental: The structurally privileged 5-methyl series was assayed for binding to both GABAA receptors (rat cortex membrane preparations) and RDL (expressed in Xenopus oocytes) and compared directly to the parent PXN (C5-H) series. The parallel series of PXN and 5MePXN analogs allowed us to interrogate the effect of the synthetically-enabling and stabilizing C5 methyl. […]
# 4. Rat GABAA receptors binding assay
# Non-selective rat GABAA ion channel [3H] TBOB binding (Antagonist Radioligand) assay was conducted by Eurofins Pharma Discovery Service of Eurofins Cerep, France.
# Compound binding was calculated as a % inhibition of the binding of the radioactive ly labeled ligand [3H] TBOB (t‐[3H]Butylbicycloorthobenzoate) for rat GABAA ion channels.9 A 20.0 mM stock solution was prepared in DMSO from each test compound to evaluate radioligand displacement of [3H] TBOB from rat cerebral cortex GABAA receptors at different concentrations.
# The results are expressed as a percent of control specific binding measured specific binding*100 […]
# and as a percent inhibition of control specific binding
# 100 − (measured specific binding*100) […]
# obtained in the presence of the test compounds.
# The IC50 values (concentration causing a half -maximal inhibition of control specific binding) and Hill coefficients (nH) were determined by non -linear regression analysis of th e competition curves generated with mean replicate values using Hill equation curve fitting […]
# where Y = specific binding, A = left asymptote of the curve, D = right asymptote of the curve , C = compound concentration, C 50 = IC50, and nH = slope factor. This analysis was performed using software developed at Cerep (Hill software) and validated by comparison with data generated by th e commercial software SigmaPlot® 4.0 for Windows ® (© 1997 by SPSS Inc.).
# The inhibition constants (K i) were calculated using the Cheng Prusoff equation where L = concentration of radioligand in the assay, and KD = affinity of the radioligand for the recept or. A scatchard plot is used to determine the K D.
# Supplementary Table 8. IC50 values of test compound
# Compound IC50 (µM) Compound IC50 (µΜ)
SMILES,stability to catalytic NaOMe [1],concentration in competitive methanolysis ([1]; 0 min) [µM],concentration in competitive methanolysis ([1]; 5 min) [µM],concentration in competitive methanolysis ([1]; 10 min) [µM],concentration in competitive methanolysis ([1]; 15 min) [µM],concentration in competitive methanolysis ([1]; 20 min) [µM],concentration in competitive methanolysis ([1]; 25 min) [µM],concentration in competitive methanolysis ([1]; 30 min) [µM],concentration in competitive methanolysis ([1]; 35 min) [µM],concentration in competitive methanolysis ([1]; 40 min) [µM],concentration in competitive methanolysis ([1]; 45 min) [µM],concentration in competitive methanolysis ([1]; 50 min) [µM],concentration in competitive methanolysis ([1]; 55 min) [µM],concentration in competitive methanolysis ([1]; 60 min) [µM],concentration in competitive methanolysis ([1]; 65 min) [µM],concentration in competitive methanolysis ([1]; 70 min) [µM],concentration in competitive methanolysis ([1]; 75 min) [µM],concentration in competitive methanolysis ([1]; 80 min) [µM],concentration in competitive methanolysis ([1]; 85 min) [µM],concentration in competitive methanolysis ([1]; 90 min) [µM],further results
"C=C(C)C1C2OC(=O)C1(C)C1(O)CC3OC34C(=O)OC2C41C (stereo not shown) [5MePXN, 5-methylpicrotoxinin]",did not observe any consumption,3268,3268,3268,3268,3268,3268,3268,3268,3268,3268,3268,3268,3268,3268,3268,3268,3268,3268,3268,"concentration in competitive methanolysis ([1]; 95 min): 3268 µM; concentration in competitive methanolysis ([1]; 100 min): 3268 µM; concentration in competitive methanolysis ([1]; 110 min): 3268 µM; concentration in competitive methanolysis ([1]; 120 min): 3268 µM; concentration in competitive methanolysis ([1]; 130 min): 3268 µM; concentration in competitive methanolysis ([1]; 140 min): 3268 µM; concentration in competitive methanolysis ([1]; 280 min): 3268 µM; competition experiment, 1:1 mixture of PXN and 5MePXN [1]: completely persisted; stability to excess NaOMe ([1]; 200 mol % (2 equivalents) NaOMe): had no effect; also recorded: stable; stability to acid [2]: stable; degradation in acid [2]: did not react at all; loss in potency from PXN (rat GABAA ion channel; [3H]TBOB binding): 10 fold; IC50 (rat GABAA ion channel; Supplementary Table 8 (5MePXN series)): 1800 nM"
"C=C(C)[C@@H]1[C@H]2OC(=O)[C@@H]1[C@]1(O)C[C@H]3O[C@]34C(=O)O[C@H]2[C@]14C [PXN, picrotoxinin]",equimolar mixture of d5-methyl picrotoxate (d5-33) and d9-dimethyl picrotoxinin dicarboxylate (d9-34) in 6 h; also recorded: unstable,3424.6,2952,2500,2181,1935,1679,1564,1495,1464,1375,1307,1223,1119,1044,962,925.6,856.1,800.1,773,"concentration in competitive methanolysis ([1]; 95 min): 730.2 µM; concentration in competitive methanolysis ([1]; 100 min): 704.7 µM; concentration in competitive methanolysis ([1]; 110 min): 611.5 µM; concentration in competitive methanolysis ([1]; 120 min): 560.5 µM; concentration in competitive methanolysis ([1]; 130 min): 515 µM; concentration in competitive methanolysis ([1]; 140 min): 466.6 µM; concentration in competitive methanolysis ([1]; 280 min): 215.8 µM; competition experiment, 1:1 mixture of PXN and 5MePXN [1]: completely degraded; stability to acid [2]: unstable; degradation in acid [2]: clean conversion to picrotoxic acid (32) in 24 h; IC50 (rat GABAA ion channel; Supplementary Table 8 (PXN series)): 210 nM"
